Test results reported in ChEMBL document CHEMBL1157008, “Discovery of 2-{4-[(3S)-piperidin-3-yl]phenyl}-2H-indazole-7-carboxamide (MK-4827): a novel oral poly(ADP-ribose)polymerase (PARP) inhibitor efficacious in BRCA-1 and -2 mutant tumors” (J Med Chem, 2009).

Columns and labels:
[1] = target: T1, PARP 1, 2 and 3 (Homo sapiens, UniProt P09874+Q9Y6F1+Q9UGN5); conditions: HeLa
[2] = target: Poly [ADP-ribose] polymerase 1 (Homo sapiens, UniProt P09874); assay: Inhibition of human PARP1 by SPA
[3] = target: T1, PARP 1, 2 and 3; assay: Inhibition of PARP in hydrogen peroxide-induced human HeLa cells assessed as inhibition DNA-damage-induced PARylation; assay type: cell-based
[4] = system: HeLa; assay: Antiproliferative activity against BRCA1 deficient human HeLa cells after 7 days by cell titer-blue assay; assay type: functional; conditions: 168 h
[5] = system: HeLa; assay: Antiproliferative activity against human HeLa cells expressing wild type BRCA1 after 7 days by cell titer-blue assay; assay type: functional; conditions: 168 h
[6] = Intrinsic clearance in mouse liver microsomes assessed per mg of protein up to 90 mins; assay type: ADME, Microsome
[7] = Intrinsic clearance in rat liver microsomes assessed per mg of protein up to 90 mins; assay type: ADME, Microsome
[8] = Plasma clearance in rat; assay type: ADME, organism-based
[9] = Terminal half life in rat; assay type: ADME, organism-based; conditions: in vivo, read-out: beta t1/2 (converted)
[10] = Volume of distribution in rat; assay type: ADME, organism-based; conditions: in vivo
[11] = Oral bioavailability in rat; assay type: ADME, organism-based; conditions: in vivo
[12] = target: T2, Cytochrome P450 1A2 (Rattus norvegicus, UniProt P04799); assay: (§1) Intrinsic clearance in rat liver microsomes assessed per mg of protein up to 60 mins in presence of rat recombinant CYP1A2; assay type: ADME, Microsome; conditions: microsomes, 1 h
T2 sequence (P04799 whole entry): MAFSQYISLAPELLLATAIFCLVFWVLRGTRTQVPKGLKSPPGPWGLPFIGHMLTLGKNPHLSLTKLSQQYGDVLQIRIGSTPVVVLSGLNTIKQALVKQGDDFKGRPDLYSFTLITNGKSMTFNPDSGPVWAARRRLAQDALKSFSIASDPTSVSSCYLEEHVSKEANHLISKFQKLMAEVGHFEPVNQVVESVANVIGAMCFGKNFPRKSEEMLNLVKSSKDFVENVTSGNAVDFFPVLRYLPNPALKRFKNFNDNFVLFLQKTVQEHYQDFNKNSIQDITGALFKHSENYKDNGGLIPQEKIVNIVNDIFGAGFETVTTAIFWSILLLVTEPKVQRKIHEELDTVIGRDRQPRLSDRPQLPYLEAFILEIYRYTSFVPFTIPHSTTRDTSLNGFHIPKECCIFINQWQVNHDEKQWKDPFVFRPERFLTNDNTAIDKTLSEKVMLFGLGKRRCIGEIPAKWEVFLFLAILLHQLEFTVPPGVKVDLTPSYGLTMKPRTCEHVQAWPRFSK

[13] = system: HeLa; assay: Selectivity index, ratio of CC50 for BRCA1 proficient human HeLa cells to CC50 for BRCA1 deficient human HeLa cells; assay type: functional
[14] = target: T3, CYP1A2 (Rattus norvegicus, UniProt P04799); assay: as §1; assay type: ADME, Microsome; conditions: rat liver microsomes with rat recombinant CYP1A2
T3 sequence (P04799 whole entry): T2 sequence (P04799 whole entry)

[15] = Solubility in phosphate buffer; assay type: physicochemical

Chain of Poly [ADP-ribose] polymerase 1 (P09874 whole entry): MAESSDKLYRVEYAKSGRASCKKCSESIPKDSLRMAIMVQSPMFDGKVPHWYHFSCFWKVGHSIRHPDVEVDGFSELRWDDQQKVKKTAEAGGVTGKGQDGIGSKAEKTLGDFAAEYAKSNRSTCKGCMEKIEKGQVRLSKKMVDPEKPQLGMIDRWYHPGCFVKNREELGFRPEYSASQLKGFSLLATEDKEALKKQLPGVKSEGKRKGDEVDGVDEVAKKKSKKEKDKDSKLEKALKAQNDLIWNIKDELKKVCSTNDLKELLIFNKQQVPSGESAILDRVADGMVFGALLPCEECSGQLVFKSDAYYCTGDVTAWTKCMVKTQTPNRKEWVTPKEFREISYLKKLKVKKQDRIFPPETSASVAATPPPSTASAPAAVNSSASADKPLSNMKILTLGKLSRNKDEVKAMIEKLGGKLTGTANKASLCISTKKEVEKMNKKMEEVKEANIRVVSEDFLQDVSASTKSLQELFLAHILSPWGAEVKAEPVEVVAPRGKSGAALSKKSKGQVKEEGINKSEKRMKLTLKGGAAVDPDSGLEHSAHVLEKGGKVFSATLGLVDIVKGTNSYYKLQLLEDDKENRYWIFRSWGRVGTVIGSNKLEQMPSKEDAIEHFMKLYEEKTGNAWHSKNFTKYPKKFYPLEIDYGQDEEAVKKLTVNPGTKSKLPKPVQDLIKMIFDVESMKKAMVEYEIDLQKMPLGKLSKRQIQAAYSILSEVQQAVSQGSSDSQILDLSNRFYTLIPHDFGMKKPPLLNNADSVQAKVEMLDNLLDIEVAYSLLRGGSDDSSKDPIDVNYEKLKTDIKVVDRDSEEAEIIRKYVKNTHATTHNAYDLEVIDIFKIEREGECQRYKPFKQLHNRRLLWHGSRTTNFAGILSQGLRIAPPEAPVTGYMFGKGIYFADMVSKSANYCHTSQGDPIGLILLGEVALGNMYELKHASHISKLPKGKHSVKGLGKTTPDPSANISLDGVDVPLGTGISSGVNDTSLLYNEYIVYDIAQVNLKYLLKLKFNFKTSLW

Row | SMILES | EC90 [1] | IC50 [2] | EC50 [3] | CC50 [4] | CC50 [5] | microsomal CLint [6] | microsomal CLint [7] | clearance [8] | half-life [9] | Vd [10] | bioavailability [11] | CL [12] | Selectivity Index [13] | microsomal CLint [14] | solubility [15]
1 | NC(=O)c1cccc2cn(Cc3ccccc3)nc12 | > 5000 nM | 130 nM | > 5000 nM | – | – | – | – | – | – | – | – | – | – | – | –
2 | CN(C)CCN(C)Cc1ccc(-n2cc3cccc(C(N)=O)c3n2)cc1 | 4400 nM | 5.9 nM | 170 nM | 3900 nM | > 20000 nM | – | – | – | – | – | – | – | – | – | –
3 | NC(=O)c1cccn2nc(-c3ccccc3)nc12 | – | 270 nM | – | – | – | – | – | – | – | – | – | – | – | – | –
4 | NC(=O)c1cccc2cn(-c3cccc(Cl)c3)nc12 | 5600 nM | 14 nM | 450 nM | – | – | – | – | – | – | – | – | – | – | – | –
5 | NC(=O)c1cccc2cn(-c3ccccc3)nc12 | 6200 nM | 24 nM | 3700 nM | – | – | 138 µL/min/mg | 123 µL/min/mg | 30 mL/min/kg | 5.1 h | 1.8 L/kg | 41% | – | – | – | –
6 | CCNCc1ccc(-n2cc3cccc(C(N)=O)c3n2)cc1 | 2100 nM | 4.3 nM | 150 nM | 1600 nM | 7400 nM | – | – | – | – | – | – | – | – | – | –
7 | NC(=O)c1cccc2cn(-c3ccc(CN4CCOCC4)cc3)nc12 | 6200 nM | 17 nM | 1200 nM | 5300 nM | > 20000 nM | – | – | – | – | – | – | – | – | – | –
8 | NC(=O)c1cccc2cn(-c3ccc(C4CCCNC4)cc3)nc12 (stereo not drawn) | 220 nM | – | – | 72 nM | 2000 nM | 1 µL/min/mg | 11 µL/min/mg | 47 mL/min/kg | – | – | 74% | 0.3 µL/min/mg | – | – | –
9 | NC(=O)c1cccc2cn(-c3ccc(CN4CCCC4)cc3)nc12 | 450 nM | 4.8 nM | 94 nM | 1200 nM | 8100 nM | – | – | – | – | – | – | – | 5 | – | –
10 | CNCCc1ccc(-n2cc3cccc(C(N)=O)c3n2)cc1 | – | 200 nM | – | 19000 nM | > 20000 nM | – | – | – | – | – | – | – | – | – | –
11 | NC(=O)c1cccc2cn(-c3ccc(C4CCCN4)cc3)nc12 (stereo not drawn) | 430 nM | 3.1 nM | 31 nM | 190 nM | 10000 nM | 4 µL/min/mg | 22 µL/min/mg | – | – | – | – | – | – | 2.5 µL/min/mg | –
12 | NC(=O)c1cccc2cn(-c3ccc(CNCCF)cc3)nc12 | – | 2.1 nM | > 5000 nM | – | – | – | – | – | – | – | – | – | – | – | –
13 | CNCc1cccc(-n2cc3cccc(C(N)=O)c3n2)c1 | – | 5.3 nM | – | 10300 nM | > 20000 nM | 5 µL/min/mg | 32 µL/min/mg | 69 mL/min/kg | – | – | – | – | – | 5.4 µL/min/mg | –
14 | CNC(C)c1ccc(-n2cc3cccc(C(N)=O)c3n2)cc1 (stereo not drawn) | 680 nM | 3.7 nM | 58 nM | 3100 nM | 14000 nM | 1 µL/min/mg | 9 µL/min/mg | 58 mL/min/kg | – | – | – | – | – | 2.2 µL/min/mg | –
15 | NC(=O)c1cccc2cn(-c3ccc(CNCC(F)F)cc3)nc12 | 7600 nM | 14 nM | 3400 nM | > 6600 nM | > 6600 nM | – | – | – | – | – | – | – | – | – | –
16 | CC(C)NCc1ccc(-n2cc3cccc(C(N)=O)c3n2)cc1 | 2000 nM | 6.7 nM | 700 nM | 2000 nM | 10000 nM | 1 µL/min/mg | 18 µL/min/mg | 131 mL/min/kg | – | – | – | – | – | 0.8 µL/min/mg | –
17 | NC(=O)c1cccc2cn(-c3ccc4c(c3)CCNC4)nc12 | 140 nM | 1.4 nM | 13 nM | 270 nM | 5400 nM | 3 µL/min/mg | 36 µL/min/mg | – | – | – | 22% | 0.7 µL/min/mg | 20 | – | –
18 | CN1CCN(Cc2ccc(-n3cc4cccc(C(N)=O)c4n3)cc2)CC1 | 2700 nM | 31 nM | 1100 nM | 2700 nM | 7900 nM | 2 µL/min/mg | 34 µL/min/mg | 8 mL/min/kg | – | – | 11% | – | 3 | < 0.1 µL/min/mg | –
19 | NC(=O)c1cccc2cn(-c3ccc([C@H]4CCCNC4)cc3)nc12 | 280 nM | – | – | 470 nM | 5700 nM | 3 µL/min/mg | 7 µL/min/mg | 24 mL/min/kg | – | – | 47% | – | – | < 0.1 µL/min/mg | –
20 | NC(=O)c1cccc2cn(-c3ccc(C4CCNCC4)cc3)nc12 | – | 9 nM | – | 410 nM | 4500 nM | 5 µL/min/mg | 15 µL/min/mg | – | – | – | – | – | – | < 0.1 µL/min/mg | –
21 | NC(=O)c1cccc2cn(-c3ccccc3Cl)nc12 | – | 100 nM | – | – | – | – | – | – | – | – | – | – | – | – | –
22 | NC(=O)c1cccc2cc(-c3ccccc3)nn12 | – | 55 nM | – | – | – | – | – | – | – | – | – | – | – | – | –
23 | CNC(C)(C)c1ccc(-n2cc3cccc(C(N)=O)c3n2)cc1 | 900 nM | 16 nM | 110 nM | 920 nM | 5500 nM | < 1 µL/min/mg | 11 µL/min/mg | – | – | – | – | 0.4 µL/min/mg | – | – | –
24 | CN(C)Cc1ccc(-n2cc3cccc(C(N)=O)c3n2)cc1 | 630 nM | 3.7 nM | 110 nM | 520 nM | 5600 nM | 1 µL/min/mg | 177 µL/min/mg | 450 mL/min/kg | – | – | – | 8.7 µL/min/mg | 10 | – | > 3000 µg/mL
25 | NC(=O)c1cccc2cn(-c3ccc4c(c3)CNCC4)nc12 | 310 nM | 2.2 nM | 46 nM | 130 nM | 2200 nM | 4 µL/min/mg | 52 µL/min/mg | 87 mL/min/kg | – | – | – | – | 16 | 0.7 µL/min/mg | –
26 | NC(=O)c1cccc2nn(-c3ccccc3)nc12 | – | 71 nM | – | – | – | – | – | – | – | – | – | – | – | – | –
27 | NC(=O)c1cccc2cn(-c3ccc(Cl)cc3)nc12 | 6700 nM | 24 nM | 720 nM | – | – | – | – | – | – | – | – | – | – | – | –
28 | NC(=O)c1cccc2cn(-c3ccc(CN4CCCCC4)cc3)nc12 | 970 nM | 1.9 nM | 180 nM | 880 nM | 5800 nM | 3 µL/min/mg | 29 µL/min/mg | 107 mL/min/kg | – | – | – | – | 5 | 3.8 µL/min/mg | –
